{
  "source": "patent US8658687B2",
  "about": "“Injectable formulations containing asenapine and method of treatment using same” (Merck Sharp & Dohme Corp., priority 2009, dated 2014)",
  "key": {"[1]": {"experiment": "Plasma levels of asenapine after IM depot injection in rabbits", "format": "in vivo, New Zealand white rabbits", "conditions": "1 mL IM injection, 20 wt % suspension, Form I mean particle size 20 micron, Form II 16 micron, rabbit", "experimental": "Each of the formulations prepared in Example 2 were administered to a series of experimental animal subjects (New Zealand white rabbits) as a depot injection. A depot of 1 mL volume of the formulation selected was administered into the left limb of the subject. At time intervals following injection, blood samples were collected from the subject's ear artery in 0.03 mL of 0.2M EDTA, Samples were collected at 1, 3, and 6 hours post injection, then 1, 2, 3, and 6 days post injection, then on days 10, 13, 17, 20, 24 and 25. Once collected, blood samples were centrifuged for 2 min. at room temperature (125,000 N/kg). Plasma samples thus obtained were analyzed by LC/MS after adding an internal standard. The asenapine and internal standard were isolated from the sample by solid phase extraction. […]\nIn additional animal studies, and with Reference to FIG. 10, using the same procedures described above, suspensions comprising 20 wt % of asenapine hemipamoate of Form I (mean particle size of 20 micron) and Form II (mean particle size 16 micron) were prepared. […] Plasma levels of asenapine were determined using the above-described procedure. […]"}, "[2]": {"experiment": "Solubility in aqueous phosphate buffer at pH 7"}, "[3]": {"experiment": "In vitro dissolution in USP paddle stirring dissolution apparatus", "conditions": "for rate of dissolution, Form I compared with Form II (FIG. 8a): phosphate buffered saline 10 mM pH 7.0, 37° C., 100 RPM, similar particle size fractions", "quoted_text": "To carry out these studies, particle, fractions of crystalline Form II of asenapine hemipamoate having d50, values of 3.5 microns, 7 microns, and 20 microns respectively, (see FIG. 7e) were obtained and placed into one of the dissolution vessels of the apparatus. Prior to charging a dissolution vessel with an aliquot of particles, each of the vessels was filled with 1 L of phosphate buffered saline (10 mM, adjusted to pH 7.0) and fitted with a probe that contained a mirror and optical arrangement in its tip defining a fixed sample path. Each probe was optically connected to a central light source and detector permitting real-time photometric monitoring of the concentration of asenapine in solution as dissolution proceeded during the investigation.\nThe particle fractions were prepared for use in the apparatus by dispersing the sample (20 mg) in 1 mL of an aqueous solution comprising 3 wt. % macrogol 3400, 0.118 wt. % of disodium hydrogen phosphate, 0.047 wt. % sodium dihydrogen phosphate and 0.76 wt. % sodium chloride. Each determination was carried out by adjusting the apparatus to the desired dissolution conditions (temperature, paddle speed, pH of dissolution media) and injecting 50 microliter of the selected crystalline Form II of asenapine hemipamoate dispersion (equivalent to 1 mg of crystalline Form II of asenapine hemipamoate) into a dissolution vessel filled with the desired dissolution medium. Asenapine hemipamoate concentration in the dissolution medium was monitored optically using the probe system described above during the course of the dissolution.\nThe above-described in vitro testing methodology was used to compare the dissolution of crystalline crystalline Form I of asenapine hemipamoate hemipamoate (as precipitated) and crystalline Form II of asenapine hemipamoate (as precipitated). Accordingly, 20 mg of a particle fraction of crystalline Form I of asenapine hemipamoate having a d50 value of 19 microns, a d90 value of 41 microns and a d10 value of 3 microns was dispersed into 2 mL of a polysorbate 80 solution. An aliquot of 100 microliter of the dispersion was introduced into dissolution medium contained in a paddle stirring apparatus as described above. For these tests the dissolution vessels of the apparatus were filled with 1 L of phosphate buffered saline (10 mM, adjusted to pH 7.0). The temperature of the dissolution medium was maintained at 37° C. and the apparatus paddle speed was set at 100 RPM.\nFor comparison, a 100 microliter sample of a dispersion comprising 100 mg of crystalline Form II of asenapine hemipamoate particle fraction having a d50 value of 16 microns, a d90 value of 50 microns, and a d10 value of 2 microns, dispersed in 1 mL of a polysorbate 80 solution, as described above was studied under the same conditions and dissolution medium used to study the sample containing crystalline Form I of asenapine hemipamoate."}, "[4]": {"experiment": "Stability of particles suspended in pH 7 phosphate buffer on storage, crystal form followed by DSC", "format": "physicochemical", "conditions": "suspended in phosphate buffer pH 7, stored at 30° C. and 40° C.", "experimental": "With reference to FIG. 2a, the conversion of Form I to Form II was monitored by periodically taking aliquots of the stored suspension, isolating the suspended solids by filtration and drying the isolated solids at room temperature. DSC analysis was performed on the isolated, dried solids using a 10 mg sample of the solids and a Mettler DSC 822e programmed to heat at a rate of 10° C./min, from 25° C. to 250° C. The results of this study are presented in, with the result shown in the upper traces of FIG. 2a."}, "[5]": {"experiment": "Plasma concentration of asenapine after depot injection in patients with stable chronic schizophrenia", "format": "in vivo, human", "conditions": "1.0 mL of 20 wt % suspension in deltoid muscle, d50 10 microns", "experimental": "Formulations of the invention were studied in human patients diagnosed with stable chronic schizophrenia. Using the same procedure described above, a suspension was prepared comprising 20 wt % of crystalline Form II of asenapine hemipamoate. The Form II particle fraction employed to prepare the suspension yielded a d10 value of 3 microns, a d90 value of 27 microns and a d50 value of 10 microns. An injection of 1.0 mL volume of the suspension was administered in the deltoid muscle of the upper arm by inserting the needle in the thickest part of the deltoid muscle at a 90 degree angle to the skin, followed by aspiration for 5 to 10 seconds, followed by injection of the depot over a 10 second interval. The plasma concentration of asenapine provided by the depot was observed using the above-described procedure."}, "[6]": {"conditions": "IM depot of suspended olanzapine pamoate particles; cited from earlier work"}, "[7]": {"conditions": "IM depot injection, mean particle diameter 6.63, 10.68, 17.16 or 29.96 microns, dogs; cited from earlier work"}},
  "data": [
    {"smiles": "CN1C[C@@H]2c3ccccc3Oc3ccc(Cl)cc3[C@H]2C1.CN1C[C@@H]2c3ccccc3Oc3ccc(Cl)cc3[C@H]2C1.O=C(O)c1cc2ccccc2c(Cc2c(O)c(C(=O)O)cc3ccccc23)c1O", "note": "[crystalline Form I of asenapine hemipamoate] [reference compound]", "values": [
      {"measurement": "initial plasma levels, Form I versus Form II (FIG. 10)", "setting": "[1]", "result": "burst release"},
      {"measurement": "solubility of Form I relative to Form II", "setting": "[2]", "result": "approximately 4 times"},
      {"measurement": "rate of dissolution, Form I compared with Form II (FIG. 8a)", "setting": "[3]", "result": "significantly higher"},
      {"measurement": "stability of crystalline form on storage of suspension (DSC of recovered solids)", "setting": "[4]", "result": "slowly converted to crystalline Form II of asenapine hemipamoate"}
    ]},
    {"smiles": "CN1C[C@@H]2c3ccccc3Oc3ccc(Cl)cc3[C@H]2C1.CN1C[C@@H]2c3ccccc3Oc3ccc(Cl)cc3[C@H]2C1.O=C(O)c1cc2ccccc2c(Cc2c(O)c(C(=O)O)cc3ccccc23)c1O", "note": "[crystalline Form II of asenapine hemipamoate]", "values": [
      {"measurement": "period of controlled release of asenapine (FIG. 11)", "setting": "[5]", "result": "about 4 weeks"},
      {"measurement": "effect of temperature of dissolution medium on dissolution behavior (FIG. 7b)", "setting": "[3]; 35° C. to 39° C.", "result": "reasonably insensitive to variation in temperature"},
      {"measurement": "effect of paddle speed on dissolution behavior (FIG. 7d)", "setting": "[3]; 50 rpm to 150 rpm", "result": "reasonably insensitive to variation in the paddle speed"},
      {"measurement": "effect of dissolution medium pH on rate of dissolution (FIG. 7c)", "setting": "[3]; pH 6 to pH 8, d50 3.5 or 20 micron fractions", "result": "does not significantly vary the rate of dissolution"},
      {"measurement": "rate of dissolution, Form I compared with Form II (FIG. 8a)", "setting": "[3]", "result": "dissolve much slower"},
      {"measurement": "effect of d50 value of particle fraction on rate of dissolution (FIG. 7a)", "setting": "[3]; same conditions, d50 3.5, 7, 20 microns", "result": "greatly influenced by the d50 value"},
      {"measurement": "stability of crystalline form on storage of suspension (DSC of recovered solids)", "setting": "[4]", "result": "does not decompose or convert to any other crystalline form"}
    ]},
    {"smiles": "Cc1cc2c(s1)Nc1ccccc1N=C2N1CCN(C)CC1.O.O=C(O)c1cc2ccccc2c(Cc2c(O)c(C(=O)O)cc3ccccc23)c1O", "note": "[olanzapine pamoate]", "values": [
      {"measurement": "adverse events in trials", "setting": "[6]", "result": "extreme sedation and reversible coma"}
    ]},
    {"smiles": "CCC1(c2ccccc2)C(=O)NC(=O)NC1=O", "note": "[phenobarbital]", "values": [
      {"measurement": "plasma concentrations of phenobarbital versus mean particle diameter (FIG. 1)", "setting": "[7]", "result": "tracked inversely with the mean particle diameter"}
    ]}
  ]
}
